Measurements published in ChEMBL document CHEMBL4699460, “Integrating DNA-encoded chemical libraries with virtual combinatorial library screening: Optimizing a PARP10 inhibitor” (Bioorg Med Chem Lett, 2020).

Columns and labels:
[1] = biological target: T1, Protein mono-ADP-ribosyltransferase PARP15 (Homo sapiens) (UniProt Q460N3); test: (§1) Inhibition of N-terminal GST-tagged human PARP15 (221 to 444 residues) expressed in Escherichia coli assessed as reduction in NAD+-dependent ADP ribosylation using histone as substrate at 10 uM incubated for 1 hr in presence of biotinylated NAD+ and activated DNA by chemiluminescence based microplate reader assay relative to control
T1 sequence (whole entry): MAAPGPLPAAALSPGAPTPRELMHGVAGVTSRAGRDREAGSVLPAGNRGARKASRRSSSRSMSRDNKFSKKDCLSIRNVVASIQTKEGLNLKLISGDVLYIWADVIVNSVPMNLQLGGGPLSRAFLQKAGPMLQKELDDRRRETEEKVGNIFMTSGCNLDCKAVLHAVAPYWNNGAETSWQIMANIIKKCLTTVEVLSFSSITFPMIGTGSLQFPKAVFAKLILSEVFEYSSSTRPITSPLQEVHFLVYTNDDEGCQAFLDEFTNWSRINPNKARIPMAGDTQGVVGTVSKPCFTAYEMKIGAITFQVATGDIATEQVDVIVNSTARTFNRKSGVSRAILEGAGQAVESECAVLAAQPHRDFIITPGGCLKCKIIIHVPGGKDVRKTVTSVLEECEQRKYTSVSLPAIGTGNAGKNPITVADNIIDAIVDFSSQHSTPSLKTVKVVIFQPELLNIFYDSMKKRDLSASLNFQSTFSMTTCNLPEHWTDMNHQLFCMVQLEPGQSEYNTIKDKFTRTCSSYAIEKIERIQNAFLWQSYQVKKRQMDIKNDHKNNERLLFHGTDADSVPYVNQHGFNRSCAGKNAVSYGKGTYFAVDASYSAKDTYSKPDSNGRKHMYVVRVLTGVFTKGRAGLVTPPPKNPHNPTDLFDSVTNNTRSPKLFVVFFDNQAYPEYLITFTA

[2] = biological target: T2, Protein mono-ADP-ribosyltransferase TIPARP (Homo sapiens) (UniProt Q7Z3E1); test: as §1, with “FLAG-tagged” for “GST-tagged”, “PARP7 (400” for “PARP15 (221”, “657” for “444”, “baculovirus infected Sf9 cells” for “Escherichia coli”
T2 sequence (whole entry): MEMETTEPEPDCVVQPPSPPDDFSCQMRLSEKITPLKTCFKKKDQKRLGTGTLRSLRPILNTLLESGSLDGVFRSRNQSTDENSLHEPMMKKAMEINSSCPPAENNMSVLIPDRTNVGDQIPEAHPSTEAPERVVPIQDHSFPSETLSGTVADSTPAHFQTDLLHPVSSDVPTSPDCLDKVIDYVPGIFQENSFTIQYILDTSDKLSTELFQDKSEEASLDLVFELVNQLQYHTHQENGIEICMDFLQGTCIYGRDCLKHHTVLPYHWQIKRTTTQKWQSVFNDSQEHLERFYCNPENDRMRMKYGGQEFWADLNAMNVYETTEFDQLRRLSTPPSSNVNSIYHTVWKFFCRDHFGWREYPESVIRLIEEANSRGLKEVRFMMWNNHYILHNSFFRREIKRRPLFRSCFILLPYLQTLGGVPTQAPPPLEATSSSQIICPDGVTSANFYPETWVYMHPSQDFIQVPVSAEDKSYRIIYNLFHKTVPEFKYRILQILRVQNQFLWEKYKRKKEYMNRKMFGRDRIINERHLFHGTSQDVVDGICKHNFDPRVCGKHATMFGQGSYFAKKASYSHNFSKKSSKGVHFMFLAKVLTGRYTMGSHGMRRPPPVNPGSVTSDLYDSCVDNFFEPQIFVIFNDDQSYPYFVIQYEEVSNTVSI

[3] = biological target: T3, Poly [ADP-ribose] polymerase tankyrase-2 (Homo sapiens) (UniProt Q9H2K2); test: Inhibition of TNKS2 (unknown origin) at 10 uM relative to control
T3 sequence (whole entry): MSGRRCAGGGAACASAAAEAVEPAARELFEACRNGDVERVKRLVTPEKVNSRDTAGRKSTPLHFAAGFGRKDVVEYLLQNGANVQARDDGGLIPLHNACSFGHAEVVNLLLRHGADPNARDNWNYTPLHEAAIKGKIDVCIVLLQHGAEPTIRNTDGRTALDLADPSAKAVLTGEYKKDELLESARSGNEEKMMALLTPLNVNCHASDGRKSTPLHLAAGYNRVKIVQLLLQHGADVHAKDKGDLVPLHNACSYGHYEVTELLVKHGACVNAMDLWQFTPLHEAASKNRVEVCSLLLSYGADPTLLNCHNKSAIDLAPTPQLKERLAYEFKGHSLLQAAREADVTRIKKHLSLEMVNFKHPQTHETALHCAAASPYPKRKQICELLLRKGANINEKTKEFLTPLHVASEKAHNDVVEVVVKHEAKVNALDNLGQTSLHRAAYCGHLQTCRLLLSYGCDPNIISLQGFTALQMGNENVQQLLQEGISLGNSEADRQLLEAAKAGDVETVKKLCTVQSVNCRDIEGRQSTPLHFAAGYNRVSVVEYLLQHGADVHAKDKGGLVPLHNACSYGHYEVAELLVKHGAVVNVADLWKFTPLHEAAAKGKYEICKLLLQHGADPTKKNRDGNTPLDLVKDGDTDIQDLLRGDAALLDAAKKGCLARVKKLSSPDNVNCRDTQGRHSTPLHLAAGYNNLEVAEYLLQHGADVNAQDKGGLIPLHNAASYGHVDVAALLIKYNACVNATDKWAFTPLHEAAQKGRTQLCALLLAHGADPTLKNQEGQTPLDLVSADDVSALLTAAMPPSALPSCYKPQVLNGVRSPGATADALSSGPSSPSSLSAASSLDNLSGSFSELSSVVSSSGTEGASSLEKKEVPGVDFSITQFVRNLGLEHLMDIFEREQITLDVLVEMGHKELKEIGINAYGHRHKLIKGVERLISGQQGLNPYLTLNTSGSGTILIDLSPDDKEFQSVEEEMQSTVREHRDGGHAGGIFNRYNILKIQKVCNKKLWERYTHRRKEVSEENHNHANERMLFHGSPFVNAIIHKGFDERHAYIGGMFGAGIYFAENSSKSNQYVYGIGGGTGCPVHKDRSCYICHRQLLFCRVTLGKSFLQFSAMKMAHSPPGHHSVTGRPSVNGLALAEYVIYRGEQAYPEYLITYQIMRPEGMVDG

[4] = biological target: Poly [ADP-ribose] polymerase 1 (Homo sapiens) (UniProt P09874); test: as §1, with “GST tagged” for “GST-tagged”, “PARP1 (2” for “PARP15 (221”, “1041” for “444”, “baculovirus infected Sf9 cells” for “Escherichia coli”
Poly [ADP-ribose] polymerase 1 (Homo sapiens), sequence (P09874 whole entry): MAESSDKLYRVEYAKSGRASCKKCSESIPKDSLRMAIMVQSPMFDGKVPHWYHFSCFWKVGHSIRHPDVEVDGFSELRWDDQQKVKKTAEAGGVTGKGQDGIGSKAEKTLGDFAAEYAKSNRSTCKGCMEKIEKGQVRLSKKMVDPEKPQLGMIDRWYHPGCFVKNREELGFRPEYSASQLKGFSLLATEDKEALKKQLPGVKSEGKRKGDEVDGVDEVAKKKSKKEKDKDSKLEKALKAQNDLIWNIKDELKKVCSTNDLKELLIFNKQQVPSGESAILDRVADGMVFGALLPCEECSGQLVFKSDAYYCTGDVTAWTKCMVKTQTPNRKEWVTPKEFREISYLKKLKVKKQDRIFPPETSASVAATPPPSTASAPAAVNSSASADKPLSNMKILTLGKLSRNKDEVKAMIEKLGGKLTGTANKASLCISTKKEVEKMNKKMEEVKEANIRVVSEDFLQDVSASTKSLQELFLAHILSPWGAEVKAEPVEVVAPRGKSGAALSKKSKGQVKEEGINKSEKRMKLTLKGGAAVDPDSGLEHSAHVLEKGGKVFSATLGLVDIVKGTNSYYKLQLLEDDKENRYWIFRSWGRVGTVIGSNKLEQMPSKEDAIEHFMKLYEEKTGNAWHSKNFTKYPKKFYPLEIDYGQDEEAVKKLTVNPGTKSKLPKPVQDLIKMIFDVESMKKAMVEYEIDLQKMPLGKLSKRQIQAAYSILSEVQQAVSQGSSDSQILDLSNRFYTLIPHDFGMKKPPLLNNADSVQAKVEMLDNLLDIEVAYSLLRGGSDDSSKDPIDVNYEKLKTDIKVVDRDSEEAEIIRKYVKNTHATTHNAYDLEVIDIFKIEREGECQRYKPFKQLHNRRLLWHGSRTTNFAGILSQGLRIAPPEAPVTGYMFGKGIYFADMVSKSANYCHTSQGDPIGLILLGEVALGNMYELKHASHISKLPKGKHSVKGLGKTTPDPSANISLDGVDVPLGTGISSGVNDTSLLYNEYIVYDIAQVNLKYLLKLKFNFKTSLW

| inhibition [1] [%] | inhibition [2] [%] | inhibition [3] [%] | inhibition [4] [%] | SMILES |
| --- | --- | --- | --- | --- |
| 10 | > 50 | > 50 | > 50 | CC1(CNC(=O)COc2cccc3c2CCCC3=O)CCN(C(=O)CCc2nc3ccccc3[nH]c2=O)CC1 |
| < 25 | < 25 | < 25 | < 25 | CNC(=O)[C@H](CNC(=O)CCc1nc2ccccc2[nH]c1=O)NC(=O)c1ccc2c(c1)CCCC2=O |
